The term IC50 denotes the concentration needed to halve the response being measured.

This passage reports IC50 results from patent US12331040B2 (Karyopharm Therapeutics Inc., priority 2013, dated 2025).

What all share (test): MTT cell proliferation assay
Format in all cases: cell-based
(Tetrazolium assays rely on reduction of a dye to a coloured formazan, in cell work by metabolically active cells.)

In assay [1] the test system is 3T3 cells. The following applies: Mus musculus, NIH3T3, approximately 64-72 hours incubation. An outline of the steps:
(§1)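 5,000-10,000 cells/well, overnight attach; 8 conc., 1 nM–30 μM; MTT ~4 h; formazan solubilized, OD 490 nm; % inhibition = (1−(ODo/OD))×100 vs neg. control; mostly duplicate, mean±SE.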

For assay [2], the system named is Z138 cells. The settings on record: Homo sapiens, Z-138, Z138 cells, approximately 64-72 hours incubation. The procedure, abridged: as §1
Assay [3] concerns MS751 cells. The following applies: Homo sapiens, MS751, MS751 cells, approximately 64-72 hours incubation. An outline of the steps: as §1
[4] abbreviates: read-out: MTT Assay IC50 MS-751.
[5] abbreviates: read-out: MTT Assay IC50, Z-138.
Setting [6] is: read-out: MTT Assay IC50, MS-751.

Where two headings read alike, the source gives them in different places.

With `Nc1ccc(/C=C/C(=O)NCc2cc3cc(-c4ncc(C(=O)N5CCC(F)(F)C5)cn4)cc(C(F)(F)F)c3o2)cn1` [Compound 653, (E)-3-(6-aminopyridin-3-yl)-N-((5-(5-(3,3-difluoropyrrolidine-1-carbonyl)pyrimidin-2-yl)-7-(trifluoromethyl)benzofuran-2-yl)methyl)acrylamide], the IC50 in assay [1] (read-out: MTT Assay IC50 3T3) was more than 10 µM; in assay [2] (read-out: MTT Assay IC50 Z-138), 100 to 5000 nM; in assay [3] (setting [4]), 100 to 5000 nM.

As to `COc1cc(-c2ccc(C(=O)N3CCNCC3)cn2)cc2cc(CNC(=O)/C=C/c3ccc(N)nc3)oc12` [Compound 641, (E)-3-(6-aminopyridin-3-yl)-N-((7-methoxy-5-(5-(piperazine-1-carbonyl)pyridin-2-yl)benzofuran-2-yl)methyl)acrylamide], the IC50 was more than 10 µM in assay [1] (read-out: MTT Assay IC50 3T3), less than 100 nM in assay [2] (read-out: MTT Assay IC50 Z-138) and less than 100 nM in assay [3] (setting [4]).

As to `Nc1ccc(/C=C/C(=O)NCc2cc3cc(-c4ccc(C(=O)N5CCC(O)(C(F)(F)F)CC5)cn4)cc(C(F)(F)F)c3o2)cn1` [Compound 616, (E)-3-(6-aminopyridin-3-yl)-N-((5-(5-(4-hydroxy-4-(trifluoromethyl)piperidine-1-carbonyl)pyridin-2-yl)-7-(trifluoromethyl)benzofuran-2-yl)methyl)acrylamide], the IC50 in assay [1] (read-out: MTT Assay IC50 3T3) is more than 10 µM; in assay [2] (read-out: MTT Assay IC50 Z-138), less than 100 nM; in assay [3] (setting [4]) it was less than 100 nM.

Turning to `Nc1ccc(/C=C/C(=O)NCc2cc3c(-c4ccc(C(=O)N5CCC(F)(F)CC5)cc4)cc(Cl)cc3o2)cn1` [Compound 713, (E)-3-(6-aminopyridin-3-yl)-N-((6-chloro-4-(4-(4,4-difluoropiperidine-1-carbonyl)phenyl)benzofuran-2-yl)methyl)acrylamide], the IC50 in assay [1] (read-out: MTT Assay IC50, 3T3) is 5 to 10 µM; in assay [2] (setting [5]) it was 100 to 5000 nM; in assay [3] (setting [6]), 100 to 5000 nM.

Turning to `O=C(/C=C/c1ccc(Cl)nc1)NCc1cc2cc(-c3ccc(C(=O)N4CCOCC4)cc3)cc(Cl)c2o1` [Compound 537, (E)-N-((7-Chloro-5-(4-(morpholine-4-carbonyl)phenyl)benzofuran-2-yl)methyl)-3-(6-chloropyridin-3-yl)acrylamide], the IC50 in assay [1] (read-out: MTT Assay IC50 3T3) is more than 10 µM; in assay [2] (read-out: MTT Assay IC50 Z-138), more than 10000 nM; in assay [3] (setting [4]) it was more than 10000 nM.

As for `Cc1c(CNC(=O)/C=C/c2ccc(N)nc2)oc2c(C(F)(F)F)cc(-c3ccc(C(=O)N4CCC(F)(F)CC4)cn3)cc12` [Compound 677, (E)-3-(6-aminopyridin-3-yl)-N-((5-(5-(4,4-difluoropiperidine-1-carbonyl)pyridin-2-yl)-3-methyl-7-(trifluoromethyl)benzofuran-2-yl)methyl)acrylamide], the IC50 in assay [1] (read-out: MTT Assay IC50, 3T3) was more than 10 µM; in assay [2] (setting [5]), more than 10000 nM; in assay [3] (setting [6]), more than 10000 nM.

`Nc1ccc(/C=C/C(=O)NCc2cc3cc(-c4ccc(CN5CCC(F)(F)CC5)cn4)cc(C(F)(F)F)c3o2)cn1` [Compound 675, (E)-3-(6-aminopyridin-3-yl)-N-((5-(5-((4,4-difluoropiperidin-1-yl)methyl)pyridin-2-yl)-7-(trifluoromethyl)benzofuran-2-yl)methyl)acrylamide]: the IC50 in assay [1] (read-out: MTT Assay IC50, 3T3) is more than 10 µM; in assay [2] (setting [5]), more than 10000 nM; in assay [3] (setting [6]), more than 10000 nM.

Take `Nc1ccc(/C=C/C(=O)NCc2cc3cc(-c4ccc(C(=O)NC5(C(F)(F)F)CC5)cn4)cc(C(F)(F)F)c3o2)cn1` [Compound 619, (E)-6-(2-((3-(6-aminopyridin-3-yl)acrylamido)methyl)-7-(trifluoromethyl)benzofuran-5-yl)-N-(1-(trifluoromethyl)cyclopropyl)nicotinamide]: the IC50 in assay [1] (read-out: MTT Assay IC50 3T3) was more than 10 µM; in assay [2] (read-out: MTT Assay IC50 Z-138), 100 to 5000 nM; in assay [3] (setting [4]), 100 to 5000 nM.

`Nc1ccc(/C=C/C(=O)NCc2cc3cc(-c4ccc(C(=O)N5CCC(F)(F)CC5)cc4F)cc(-c4cccc(Cl)c4)c3o2)cn1` [Compound 756, (E)-3-(6-aminopyridin-3-yl)-N-((7-(3-chlorophenyl)-5-(4-(4,4-difluoropiperidine-1-carbonyl)-2-fluorophenyl)benzofuran-2-yl)methyl)acrylamide]: the IC50 in assay [1] (read-out: MTT Assay IC50, 3T3) was more than 10 µM; in assay [2] (setting [5]) it was less than 100 nM; in assay [3] (setting [6]), less than 100 nM.

Take `Nc1ccc(/C=C/C(=O)NCc2cc3cc(-c4ccc(C(=O)N5CCCOCC5)cc4)cc(C(F)(F)F)c3o2)cn1` [Compound 574, (E)-N-((5-(4-(1,4-oxazepane-4-carbonyl)phenyl)-7-(trifluoromethyl)benzofuran-2-yl)methyl)-3-(6-aminopyridin-3-yl)acrylamide]: the IC50 in assay [1] (read-out: MTT Assay IC50 3T3) is more than 10 µM; in assay [2] (read-out: MTT Assay IC50 Z-138), 100 to 5000 nM; in assay [3] (setting [4]) it was 100 to 5000 nM.

Turning to `Nc1ccc(/C=C/C(=O)NCc2cc3cc(-c4ccc(C(=O)N5CC(F)(F)C5)cc4)cc(C(F)(F)F)c3o2)cn1` [Compound 520, (E)-3-(6-aminopyridin-3-yl)-N-((5-(4-(3,3-difluoroazetidine-1-carbonyl)phenyl)-7-(trifluoromethyl)benzofuran-2-yl)methyl)acrylamide], the IC50 in assay [1] (read-out: MTT Assay IC50 3T3) was more than 10 µM; in assay [2] (read-out: MTT Assay IC50 Z-138) it was 100 to 5000 nM; in assay [3] (setting [4]), 100 to 5000 nM.

With `Nc1ccc(/C=C/C(=O)NCc2cc3cc(-c4ccc(C(=O)N5CCC(F)(F)CC5)cn4)cc(C(F)(F)F)c3o2)cc1F` [Compound 676, (E)-3-(4-amino-3-fluorophenyl)-N-((5-(5-(4,4-difluoropiperidine-1-carbonyl)pyridin-2-yl)-7-(trifluoromethyl)benzofuran-2-yl)methyl)acrylamide], the IC50 is more than 10 µM in assay [1] (read-out: MTT Assay IC50, 3T3); more than 10000 nM in assay [2] (setting [5]); more than 10000 nM in assay [3] (setting [6]).

Regarding `Nc1ccc(/C=C/C(=O)NCc2cc3cc(-c4ccc(C(=O)N5CCC(C(F)(F)F)CC5)cc4)cc(C(F)(F)F)c3o2)cn1` [Compound 605, (E)-3-(6-aminopyridin-3-yl)-N-((7-(trifluoromethyl)-5-(4-(4-(trifluoromethyl)piperidine-1-carbonyl)phenyl)benzofuran-2-yl)methyl)acrylamide], the IC50 in assay [1] (read-out: MTT Assay IC50 3T3) is more than 10 µM; in assay [2] (read-out: MTT Assay IC50 Z-138), 100 to 5000 nM; in assay [3] (setting [4]), 100 to 5000 nM.

For `CC(=O)c1ccc(-c2ccc3oc(CNC(=O)/C=C/c4ccc(N)nc4)cc3c2)s1` [Compound 503, (E)-N-((5-(5-acetylthiophen-2-yl)benzofuran-2-yl)methyl)-3-(6-aminopyridin-3-yl)acrylamide], the IC50 in assay [1] (read-out: MTT Assay IC50 3T3) is more than 10 µM; in assay [2] (read-out: MTT Assay IC50 Z-138), more than 10000 nM; in assay [3] (setting [4]) it was 100 to 5000 nM.

In the case of `CC(C)(NC(=O)/C=C/c1ccc(N)nc1)c1cc2cc(-c3ccc(C(=O)N4CCOCC4)cc3)cc(Cl)c2o1` [Compound 512, (E)-3-(6-aminopyridin-3-yl)-N-(2-(7-chloro-5-(4-(morpholine-4-carbonyl)phenyl)benzofuran-2-yl)propan-2-yl)acrylamide], the IC50 in assay [1] (read-out: MTT Assay IC50 3T3) is more than 10 µM; in assay [2] (read-out: MTT Assay IC50 Z-138) it was more than 10000 nM; in assay [3] (setting [4]), more than 10000 nM.

Turning to `COc1ccc(Cl)cc1-c1cc(-c2ccc(C(=O)N3CCC(F)(F)CC3)cc2)cc2cc(CNC(=O)/C=C/c3ccc(N)nc3)oc12` [Compound 730, (E)-3-(6-aminopyridin-3-yl)-N-((7-(5-chloro-2-methoxyphenyl)-5-(4-(4,4-difluoropiperidine-1-carbonyl)phenyl)benzofuran-2-yl)methyl)acrylamide], the IC50 in assay [1] (read-out: MTT Assay IC50, 3T3) was less than 0.1 µM; in assay [2] (setting [5]) it was less than 100 nM; in assay [3] (setting [6]), less than 100 nM.

As for `Cc1noc(C)c1-c1cc(-c2ccc(F)cc2)c2oc(CNC(=O)/C=C/c3ccc(N)nc3)cc2c1` [Compound 694, (E)-3-(6-aminopyridin-3-yl)-N-((5-(3,5-dimethylisoxazol-4-yl)-7-(4-fluorophenyl)benzofuran-2-yl)methyl)acrylamide], the IC50 is more than 10 µM in assay [1] (read-out: MTT Assay IC50, 3T3); less than 100 nM in assay [2] (setting [5]); 100 to 5000 nM in assay [3] (setting [6]).

On to `Nc1ccc(/C=C/C(=O)NCc2cc3cc(-c4ccc(C(=O)N5CCC(F)(F)CC5)cc4)cc(-c4ccncc4F)c3o2)cn1` [Compound 696, (E)-3-(6-aminopyridin-3-yl)-N-((5-(4-(4,4-difluoropiperidine-1-carbonyl)phenyl)-7-(3-fluoropyridin-4-yl)benzofuran-2-yl)methyl)acrylamide], for which the IC50 in assay [1] (read-out: MTT Assay IC50, 3T3) is 0.1 to 5 µM; in assay [2] (setting [5]), less than 100 nM; in assay [3] (setting [6]), less than 100 nM.

Turning to `Nc1ccc(/C=C/C(=O)NCc2cc3cc(-c4ccc(C(=O)N5CCC(F)(F)CC5)cn4)cc(-c4nnco4)c3o2)cn1` [Compound 662, (E)-3-(6-aminopyridin-3-yl)-N-((5-(5-(4,4-difluoropiperidine-1-carbonyl)pyridin-2-yl)-7-(1,3,4-oxadiazol-2-yl)benzofuran-2-yl)methyl)acrylamide], the IC50 in assay [1] (read-out: MTT Assay IC50, 3T3) is more than 10 µM; in assay [2] (setting [5]), 100 to 5000 nM; in assay [3] (setting [6]), 100 to 5000 nM.

Consider `Nc1ccc(/C=C/C(=O)NCc2cc3cc(-c4ccc(S(=O)(=O)N5CC(F)C5)cc4)cc(Cl)c3o2)cn1` [Compound 533, (E)-3-(6-aminopyridin-3-yl)-N-((7-chloro-5-(4-(3-fluoroazetidin-1-ylsulfonyl)phenyl)benzofuran-2-yl)methyl)acrylamide], for which the IC50 in assay [1] (read-out: MTT Assay IC50 3T3) was more than 10 µM; in assay [2] (read-out: MTT Assay IC50 Z-138), 100 to 5000 nM; in assay [3] (setting [4]) it was 100 to 5000 nM.

As to `Nc1ccc(/C=C/C(=O)NCc2cc3cc(-c4ccc(C(=O)N5CCNCC5)cn4)cc(Cl)c3o2)cn1` [Compound 589, (E)-3-(6-aminopyridin-3-yl)-N-((7-chloro-5-(5-(piperazine-1-carbonyl)pyridin-2-yl)benzofuran-2-yl)methyl)acrylamide], the IC50 in assay [1] (read-out: MTT Assay IC50 3T3) is more than 10 µM; in assay [2] (read-out: MTT Assay IC50 Z-138), less than 100 nM; in assay [3] (setting [4]) it was 100 to 5000 nM.
